US20240245603A1, “HIGH LOADING ORAL FILM FORMULATION” (INTELGENX CORP., priority 2021, published 2024)

Columns and labels:
[1] = Solubility studies of Maropitant in solvents and solubility enhancers (visual inspection); format: physicochemical
Description: The following solubility studies were performed with Maropitant drug substance in various solvents and solubility enhancers. […] During solubility studies, the API was solubilized stepwise, in a series of permitted solvent (or a combination of solvent) with and without solubility enhancer. The solvent system was based on methanol, ethanol, isopropyl alcohol (IPA), acetone, methyl ethyl ketone (MEK), and water. Solubility enhancers included Maiscine CC (MGO) (HLB 1), medium chain triglyceride (MCT) oil (HLB 1), Labrafil 1944 cs (HLB 9), Labrafil 2125CS (HLB 9), Glycerine, Tween 20 (HLB 16,7), PEG 300, Propylene glycol, SLS (HLB 40). The resulting mixture was visually inspected to evaluate solubilization. The main equipment used were glass bottles, magnetic stir bars, stirrer plate, and sonicator.

[2] = Permeability of Maropitant through artificial membranes, Franz cell model; format: in vitro ADME
Description: Numerous experiments were performed to improve the permeability of Maropitant through artificial membranes using the Franz cell model. Initially, solutions and suspensions of Maropitant and different acids at different ratios were prepared.
Based on the results obtained with the solution/suspension of Maropitant at different pH, Maropitant oral films with and without citric acid were prepared.

[3] = cited from earlier work

COc1ccc(C(C)(C)C)cc1CN[C@H]1C2CCN(CC2)[C@H]1C(c1ccccc1)c1ccccc1 [Maropitant]
Solubility ([1]; Test 1, media Methanol): Up to 30 mg/1 g of solvent
Solubility ([1]; Test 2, media Ethanol): Up to 15 mg/1 g of solvent
Solubility ([1]; Test 3, media Isopropanol): insoluble
Solubility ([1]; Test 4, media Acetone): Up to 120 mg/1 g of solvent
Solubility ([1]; Test 5, media MEK): Up to 150 mg/1 g of solvent
Solubility ([1]; Test 6, MEK:Maiscine CC 40:2): Up to 180 mg/1 g of solvent
Solubility ([1]; Test 7, MEK:Maiscine CC 40:3): Up to 220 mg/1 g of solvent
Solubility ([1]; Test 8, MEK:MCT 40:2): Up to 220 mg/1 g of solvent
Solubility ([1]; Test 9, MEK:MCT 40:3): Up to 240 mg/1 g of solvent
Solubility ([1]; Test 10, MEK:PEG 300 40:2): Up to 180 mg/1 g of solvent
Solubility ([1]; Test 11, MEK:MCT:PEG 300 40:3:2): Up to 240 mg/1 g of solvent
Solubility ([1]; Test 12, MEK:Labrafil 1944CS 40:2): Up to 220 mg/1 g of solvent
Solubility ([1]; Test 13, MEK:Labrafil 1944CS:MCT 40:3:2): Up to 220 mg/1 g of solvent
Solubility ([1]; Test 14, MEK:Labrafil 1944CS:PEG 300 40:3:2): Up to 220 mg/1 g of solvent
Solubility ([1]; Test 15, MEK:Glycerine 40:2): Up to 135 mg/1 g of solvent
Solubility ([1]; Test 16, MEK:Tween 20 40:2): Up to 180 mg/1 g of solvent
Solubility ([1]; Test 17, MEK:Methanol 40:10): Up to 155 mg/1 g of solvent
Solubility ([1]; Test 18, MEK:Methanol:MCT 40:10:3): Up to 235 mg/1 g of solvent
Solubility ([1]; Test 19, MEK:Water 40:4.5): insoluble
Solubility ([1]; Test 20, MEK:Methanol:Labrafil 2125CCS:Tween 20 40:10:4:4): Up to 317 mg/1 g of solvent
permeation of Maropitant solutions/suspensions at different pH ([2]; Maropitant/citric acid pH 4.24, 5.22, 6.22 and phosphate citrate buffer pH 8.0, FIG. 9): acidic environment promotes Maropitant permeation
Maropitant permeability of films with versus without citric acid ([2]; oral films with and without citric acid): improved

CN1CC(=O)N2[C@H](c3ccc4c(c3)OCO4)c3[nH]c4ccccc4c3C[C@@H]2C1=O [Tadalafil]
solubility in water [3]: practically insoluble
